This passage reports IC50 results from patent US20260035387A1 (BIOGEN MA INC., priority 2022, published 2026).

The subject of this assay is mutant Huntington (HTT) protein. Briefly: HTT Mutant HTRF iPSC assay (mHTT protein lowering). It is filed as cell-based. The settings on record: human iPSC derived from a HTT patient with a poly-Q49 mutation.

By IC50 is commonly meant the point on the concentration scale where inhibition reaches its midpoint. A higher IC50 goes with a need for much substance. `CCN1CCN(c2ccc3nc(C(=O)Nc4cn5cc(C)nc5c(C)n4)sc3n2)CC1` [Compound 119, N-(2,8-dimethylimidazo[1,2-a]pyrazin-6-yl)-5-(4-ethylpiperazin-1-yl)thiazolo[5,4-b]pyridine-2-carboxamide] registered an IC50 of 0.1 to 1 µM.

In the case of `COc1cc2nn(C)cc2cc1NC(=O)c1nc2ccc(N3CC[C@@H](N4CCC4)C3)nc2s1` [Compound 120, (R)-5-(3-(azetidin-1-yl)pyrrolidin-1-yl)-N-(6-methoxy-2-methyl-2H-indazol-5-yl)thiazolo[5,4-b]pyridine-2-carboxamide], the IC50 is 0.1 to 1 µM.

`COc1cc2nn(C)cc2cc1NC(=O)c1nc2ccc(N3CC[C@H](N4CCC4)C3)nc2s1` [Compound 121, (S)-5-(3-(azetidin-1-yl)pyrrolidin-1-yl)-N-(6-methoxy-2-methyl-2H-indazol-5-yl)thiazolo[5,4-b]pyridine-2-carboxamide] had an IC50 of 0.1 to 1 µM.

The molecule `Cc1cn2cc(NC(=O)c3nc4ccc(N5CCC(N6CCC6)C5)nc4s3)nc(C)c2n1` (centres unmarked) [Compound 122, 5-(3-(azetidin-1-yl)pyrrolidin-1-yl)-N-(2,8-dimethylimidazo[1,2-a]pyrazin-6-yl)thiazolo[5,4-b]pyridine-2-carboxamide] showed a concentration for half-maximal inhibition (IC50) of 1 to 9 µM.

`Cc1cn2cc(NC(=O)c3nc4ccc(C5CCNCC5)nc4s3)cc(F)c2n1` [Compound 129, N-(8-fluoro-2-methylimidazo[1,2-a]pyridin-6-yl)-5-(piperidin-4-yl)thiazolo[5,4-b]pyridine-2-carboxamide]: the IC50 is < 0.1 µM.

On to `Cc1cn2cc(NC(=O)c3nc4ccc(C5=CC6CCC(C5)N6)nc4s3)cc(F)c2n1` (centres unmarked) [Compound 130, 5-(8-azabicyclo[3.2.1]oct-2-en-3-yl)-N-(8-fluoro-2-methylimidazo[1,2-a]pyridin-6-yl)thiazolo[5,4-b]pyridine-2-carboxamide], for which the IC50 was < 0.1 µM.

For the molecule `Cc1cn2cc(NC(=O)c3nc4ccc(C5CCN(C)C5)nc4s3)cc(F)c2n1` (centres unmarked) [Compound 131, N-(8-fluoro-2-methylimidazo[1,2-a]pyridin-6-yl)-5-(1-methylpyrrolidin-3-yl)thiazolo[5,4-b]pyridine-2-carboxamide], the IC50 was < 0.1 µM.

With `Cc1cn2cc(NC(=O)c3nc4ccc(C5=CC(C)(C)NC(C)(C)C5)nc4s3)cc(F)c2n1` [Compound 132, N-(8-fluoro-2-methylimidazo[1,2-a]pyridin-6-yl)-5-(2,2,6,6-tetramethyl-1,2,3,6-tetrahydropyridin-4-yl)thiazolo[5,4-b]pyridine-2-carboxamide], the IC50 was < 0.1 µM.

Consider `Cc1cn2cc(NC(=O)c3nc4ccc(C5=CCCN(C)C5)nc4s3)cc(F)c2n1` [Compound 133, N-(8-fluoro-2-methylimidazo[1,2-a]pyridin-6-yl)-5-(1-methyl-1,2,5,6-tetrahydropyridin-3-yl)thiazolo[5,4-b]pyridine-2-carboxamide], for which the IC50 was < 0.1 µM.

As to `Cc1cn2cc(NC(=O)c3nc4ccc(C5CCCN(C)C5)nc4s3)cc(F)c2n1` (centres unmarked) [Compound 134, N-(8-fluoro-2-methylimidazo[1,2-a]pyridin-6-yl)-5-(1-methylpiperidin-3-yl)thiazolo[5,4-b]pyridine-2-carboxamide], the IC50 was < 0.1 µM.

`COc1cc2nn(C)cc2cc1NC(=O)c1nc2ccc(C3CCN(C)CC3)nc2s1` [Compound 135, N-(6-methoxy-2-methyl-2H-indazol-5-yl)-5-(1-methylpiperidin-4-yl)thiazolo[5,4-b]pyridine-2-carboxamide]: the IC50 was 0.1 to 1 µM.

Regarding `Cc1cn2cc(NC(=O)c3nc4ccc(C5CCN(C)CC5)nc4s3)nc(C)c2n1` [Compound 136, N-(2,8-dimethylimidazo[1,2-a]pyrazin-6-yl)-5-(1-methylpiperidin-4-yl)thiazolo[5,4-b]pyridine-2-carboxamide], the IC50 lay within 1 to 9 µM.

For `COc1cc2nn(C)cc2cc1NC(=O)c1nc2ccc(C3CCN(C)C3)nc2s1` (centres unmarked) [Compound 137, N-(6-methoxy-2-methyl-2H-indazol-5-yl)-5-(1-methylpyrrolidin-3-yl)thiazolo[5,4-b]pyridine-2-carboxamide], the IC50 is < 0.1 µM.

`Cc1cn2cc(NC(=O)c3nc4ccc(C5CCN(C)C5)nc4s3)nc(C)c2n1` (centres unmarked) [Compound 138, N-(2,8-dimethylimidazo[1,2-a]pyrazin-6-yl)-5-(1-methylpyrrolidin-3-yl)thiazolo[5,4-b]pyridine-2-carboxamide] registered an IC50 of 0.1 to 1 µM.

As for `Cc1cn2cc(NC(=O)c3nc4ccc(C5C[C@@H](C)N[C@@H](C)C5)nc4s3)cc(F)c2n1` (stereo partly drawn) [Compound 139, 5-[(2S,6R)-2,6-dimethyl-4-piperidyl]-N-(8-fluoro-2-methyl-imidazo[1,2-a]pyridin-6-yl)thiazolo[5,4-b]pyridine-2-carboxamide], the IC50 is < 0.1 µM.

Consider `Cc1cn2cc(NC(=O)c3nc4ccc(C5=C[C@@H](C)N[C@@H](C)C5)nc4s3)cc(F)c2n1` [Compound 140, 5-[(2S,6R)-2,6-dimethyl-1,2,3,6-tetrahydropyridin-4-yl]-N-(8-fluoro-2-methyl-imidazo[1,2-a]pyridin-6-yl)thiazolo[5,4-b]pyridine-2-carboxamide], for which the IC50 is < 0.1 µM.

`Cc1cn2cc(NC(=O)c3cc4ncc(C5CC6CCC(C5)N6)nc4s3)cc(F)c2n1` (centres unmarked) [Compound 142, 3-(8-azabicyclo[3.2.1]octan-3-yl)-N-(8-fluoro-2-methylimidazo[1,2-a]pyridin-6-yl)thieno[2,3-b]pyrazine-6-carboxamide] displayed a concentration for half-maximal inhibition (IC50) of 0.1 to 1 µM.

`Cc1cn2cc(NC(=O)c3cc4ncc(C5CCCCN5)nc4s3)cc(F)c2n1` (centres unmarked) [Compound 144, N-(8-fluoro-2-methylimidazo[1,2-a]pyridin-6-yl)-3-(piperidin-2-yl)thieno[2,3-b]pyrazine-6-carboxamide] returned an IC50 of 1 to 9 µM.

As for `Cc1cn2cc(NC(=O)c3cc4ncc(C5CCNC5)nc4s3)cc(F)c2n1` (centres unmarked) [Compound 146, N-(8-fluoro-2-methylimidazo[1,2-a]pyridin-6-yl)-3-(pyrrolidin-3-yl)thieno[2,3-b]pyrazine-6-carboxamide], the IC50 was < 0.1 µM.

Consider `Cc1cn2cc(NC(=O)c3cc4ncc(C5=CCNCC5)nc4s3)cc(F)c2n1` [Compound 147, N-(8-fluoro-2-methylimidazo[1,2-a]pyridin-6-yl)-3-(1,2,3,6-tetrahydropyridin-4-yl)thieno[2,3-b]pyrazine-6-carboxamide], for which the IC50 is < 0.1 µM.

Consider `Cc1cn2cc(NC(=O)c3cc4ncc(C5CCNCC5)nc4s3)cc(F)c2n1` [Compound 148, N-(8-fluoro-2-methyl-imidazo[1,2-a]pyridin-6-yl)-3-(4-piperidyl)thieno[2,3-b]pyrazine-6-carboxamide], for which the half-inhibitory concentration (IC50) was < 0.1 µM.

Molecule `Cc1cn2cc(NC(=O)c3cc4cnc(N5CC[C@@H](N(C)C)C5)nc4s3)cc(F)c2n1` [Compound 149, (R)-2-(3-(dimethylamino)pyrrolidin-1-yl)-N-(8-fluoro-2-methylimidazo[1,2-a]pyridin-6-yl)thieno[2,3-d]pyrimidine-6-carboxamide] came in with a 50% inhibitory concentration (IC50) of 0.1 to 1 µM.

Molecule `Cc1cn2cc(NC(=O)c3cc4cnc(N5CC[C@@H](N(C)C)C5)nc4s3)nc(C)c2n1` [Compound 150, (R)-2-(3-(dimethylamino)pyrrolidin-1-yl)-N-(2,8-dimethylimidazo[1,2-a]pyrazin-6-yl)thieno[2,3-d]pyrimidine-6-carboxamide] had an IC50 of 0.1 to 1 µM.
